Entries after “also recorded” stand apart in the source; their conditions may differ.
Experiments:
[1] = system: Hoechst side population cells; test: Annexin V staining of Hoechst side population cells; format: cell-based; conditions: Hoechst side population cells treated with compound
Procedure: Hoechst Side Population: To identify and isolate side population (SP) and non-SP fractions, SW480 cells were removed from the culture dish with trypsin and EDTA, pelleted by centrifugation, washed with phosphate-buffered saline (PBS), and resuspended at 37° C. in Dulbecco's modified Eagle's medium (DMEM) containing 2% FBS and 1 mM HEPES. The cells were then labeled with Hoechst 33342 (Invitrogen) at a concentration of 5 μg/mL. The labeled cells were incubated for 120 minutes at 37° C., either alone or with 50 μM verapamil (Sigma-Aldrich, St. Louis). After staining, the cells were suspended in Hanks' balanced saline solution (HBSS; Invitrogen) containing 2% FBS and 1 mM HEPES, passed a through 40 μm mesh filter, and maintained at 4° C. until flow cytometry analysis. The Hoechst dye was excited at 350 nm, and its fluorescence was measured at two wavelengths using a 450 DF10 (450/20 nm band-pass filter) and a 675LP (675 nm long-pass edge filter) optical filter. The gating on forward and side scatter was not stringent, and only debris was excluded.
Analysis of Apoptosis: Cells treated with or without compound were harvested at 5 hours post treatment for Annexin-V staining. Collected cells were washed with PBS and resuspended in Annexin-V-FITC containing buffer and stained according to manufactures directions (Roche). Annexin-V positive cells were determined by Flow cytometry. […]

[2] = system: CD44high CSCs (FaDu); test: Sphere assay (CSC spherogenesis); format: cell-based, human; conditions: FACS-isolated CD44high CSCs grown as spheres for 72 hours before challenge
Procedure: CD44^high cells were isolated by FACS according to the methods described in Ponti et al, with slight modification. Briefly, after trypsinization and recovery of cells for 30 minutes at 37° C. in growth media, cells were pelleted at 400×g and were resuspended in PBS with 2% FBS and 1 mM EDTA at 1×10^6 cells/mL. Cells were then incubated on ice with a 1:100 dilution of CD44-FITC (BD Biosicences, San Diego, Calif.) for 15 minutes. Alternatively, CD24-PE (BD Bioscences, San Diego, Calif.) (1:100) was utilized for negative selection. After washing three times, cells were resuspended at 2×10^6/mL and passed through a […] mesh before sorting
Sphere assay: A reliable method of measuring the self-renewal capacity of cell population if the ability to be cultured as spheres in the absence of serum or attachment. CD44^high FaDu or Hoechst side population cancer stem cells were cultured in ultra low attachment plates in cancer stem cell media (DMEM/F12, B27 Neurobasal supplement, 20 ng/ml EGF, 10 ng/ml FGF, 4 μg/ml insulin, and 0.4% BSA) to allow spheres formation. Typically, sphere formation was evaluated by microscopy after 10-14 days in culture and spheres with >50 cells were scored.
Identification of compounds that inhibit CSC spherogenesis in vitro. One of the hallmarks of cancer stem cells is their ability to self-renew. A reliable method of measuring the self-renewal capacity of cell populations is the ability to be cultured as spheres in the absence of serum or attachment. To compare the ability of compound 401 to other targeted and chemotherapeutic agents, FACS-isolated CD44^high CSCs were grown as spheres for 72 hours before being challenged with a panel of therapeutic agents. […] Tarceva, Sutent, and Gleevec were added at approximately three times their reported therapeutic concentrations.

[3] = system: Paca2 human pancreatic cancer cells; test: Colony formation, Paca2 cells, single drugs and combinations; format: cell-based; conditions: Homo sapiens, read-out: Compound 401 (% Inhibition)
Procedure: (§1) Paca2 human pancreatic cancer cells, A549 human lung cancer cells, and HepG2 human liver cancer cells (American Type Culture Collection) were cultured in Dulbecco's modified Eagle's medium containing 10% fetal bovine serum, 100 units/mL penicillin, 100 μg/mL streptomycin, and 2 mM L-glutamine. […] Erlotinib was from American Custom Chemicals (San Diego, Calif.). Gemcitabine was from Eli Lilly (Indianapolis, Ind.) in an aqueous 20 mM stock solution. Sorafenib was Mass.). Unless otherwise noted all compounds were solubilized in DMSO at 10 mM and aliquoted at −20° C. Exponentially growing Paca2 pancreatic cancer cells were seeded at 1,000 cells per well in 6-well plates and allowed to attach for 24 hours. Increasing concentrations of individual drugs and those in combination were then added to the media for another 24 hours. After 24 hours exposure, the drug was removed and fresh media was added for the next 10-14 days, allowing for colony formation. Cells were fixed and stained with GIEMSA (Gibco BRL). […] Results are an average of duplicate experiments. Alternatively, MTT assays were performed 72 hours post-treatment in A549 and HepG2 cells.

[4] = system: A549 human lung cancer cells; test: 72 hour MTT, A549 cells, single drugs and combinations; format: cell-based; conditions: 72 hour MTT A549 cells, read-out: Compound 401 (% Inhibition)
Procedure: (§2) Cell Viability Determination: For 3-(4,5 dimethylthiazol-2-yl)-2,5-diphenyltetrazolium (MTT) (Sigma-Aldrich, St. Louis, Mo.) analysis, cells were plated in 96 well plates at 10,000 cells per well. 24 hours after plating, compound was added to cells at indicated doses. […] following compound addition, MTT was added to each well (0.5 mg/ml, final concentration) and plates were incubated for an additional 2 hours at 37° C. Medium was then aspirated and the formazan product was solubilized in 100 μl of isopropyl alcohol. The absorbance of each well was measured at 570 nm using a microplate reader.
as §1

[5] = system: HepG2 human liver cancer cells; test: 72 hour MTT, HepG2 cells, single drugs and combinations; format: cell-based; conditions: read-out: Compound 401 (% Inhibition)
Procedure: as §2, §1

For `CC(=O)c1cc2c(o1)C(=O)c1ccccc1C2=O` [Compound 401, 2-acetylnaphtho[2,3-b]furan-4,9-dione], the “Mode of cell death, Annexin V staining” value [1] was “dying cells are Annexin V positive; also recorded: apoptotic”, the “Effect on CSC sphere proliferation / formation” value [2] was “effective at preventing sphere proliferation; also recorded: blocks” and the inhibition at 0.066 µM ([3]; PaCa-2, 401 alone 66 nM) was 32%. For the same compound, the inhibition at 0.133 µM ([3]; PaCa-2, 401 alone 133 nM) was 66%, the inhibition at 0.25 µM ([4]; 401 alone 250 nM) was 36% and the inhibition at 0.5 µM ([4]; 401 alone 500 nM) was 35%. For the same compound, the inhibition at 0.125 µM ([5]; 401 alone 125 nM) was 7% and the inhibition at 0.25 µM ([5]; 401 alone 250 nM) was 43%.
